From patent publication EP4722207A1, “OXOISOINDOLINYL-SUBSTITUTED TETRAHYDROPYRIMIDINEDIONE DERIVATIVE AND USE THEREOF” (Gluetacs Therapeutics (Shanghai) Co., Ltd., priority 2023, dated 2024)

Tests used:
[1] = system: MV-4-11; assay: Cell viability assay (CellTiter-Meiluncell Luminescent), tumor cell proliferation, MV-4-11; conditions: Homo sapiens, MV4-11, 96 h; for inhibition at 0.01 µM: read-out: Inhibition Rate at 10 nM (%); for inhibition at 0.5 µM: read-out: Inhibition Rate at 500 nM (%); for IC50: read-out: inhibitory activity (IC50, nM) against tumor cells proliferation, MV-4-11
[2] = biological target: T1, WEE1 (Homo sapiens, UniProt P30291+Q96SW2); assay: Western-blot assay, substrate protein degradation in hPBMCs: WEE1; assay type: cell-based; conditions: for substrate protein remaining % WEE1: 24 hours of compound treatment, 50 nM and 500 nM
T1 construct: effects of the compounds of the present disclosure on the expression of target proteins in cells; endogenous in cells; host or cells: human PBMCs (hPBMCs)
T1 sequence (P30291 whole entry): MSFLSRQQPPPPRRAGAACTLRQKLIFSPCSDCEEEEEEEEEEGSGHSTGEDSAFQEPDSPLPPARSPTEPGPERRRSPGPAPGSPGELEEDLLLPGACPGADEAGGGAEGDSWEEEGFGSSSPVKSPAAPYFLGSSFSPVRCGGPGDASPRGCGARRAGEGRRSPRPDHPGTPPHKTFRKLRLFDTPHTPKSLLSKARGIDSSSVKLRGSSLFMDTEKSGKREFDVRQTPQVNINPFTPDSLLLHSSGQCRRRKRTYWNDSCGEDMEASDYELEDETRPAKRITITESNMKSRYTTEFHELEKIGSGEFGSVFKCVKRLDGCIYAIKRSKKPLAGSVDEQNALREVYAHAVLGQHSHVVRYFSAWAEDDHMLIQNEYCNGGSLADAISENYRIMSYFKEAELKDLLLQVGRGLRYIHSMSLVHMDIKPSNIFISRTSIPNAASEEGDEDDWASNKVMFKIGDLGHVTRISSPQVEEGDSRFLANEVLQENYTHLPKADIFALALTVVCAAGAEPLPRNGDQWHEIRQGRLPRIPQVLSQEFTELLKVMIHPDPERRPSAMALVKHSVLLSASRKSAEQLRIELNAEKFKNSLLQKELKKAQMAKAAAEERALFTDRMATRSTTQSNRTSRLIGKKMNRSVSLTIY
T1 sequence (Q96SW2 whole entry): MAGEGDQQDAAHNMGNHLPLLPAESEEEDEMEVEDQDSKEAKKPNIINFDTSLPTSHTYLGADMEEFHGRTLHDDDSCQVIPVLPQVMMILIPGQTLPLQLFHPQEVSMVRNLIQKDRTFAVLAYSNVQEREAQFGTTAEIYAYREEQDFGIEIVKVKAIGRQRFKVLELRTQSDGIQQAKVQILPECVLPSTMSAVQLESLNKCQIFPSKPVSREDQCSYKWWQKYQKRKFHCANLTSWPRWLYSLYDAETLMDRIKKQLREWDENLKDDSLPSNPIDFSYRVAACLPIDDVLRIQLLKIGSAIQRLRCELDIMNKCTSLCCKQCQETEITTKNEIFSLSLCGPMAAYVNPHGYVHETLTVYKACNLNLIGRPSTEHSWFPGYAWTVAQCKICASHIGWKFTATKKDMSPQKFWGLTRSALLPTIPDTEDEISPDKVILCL
T1 sequence (Q16531 whole entry partner): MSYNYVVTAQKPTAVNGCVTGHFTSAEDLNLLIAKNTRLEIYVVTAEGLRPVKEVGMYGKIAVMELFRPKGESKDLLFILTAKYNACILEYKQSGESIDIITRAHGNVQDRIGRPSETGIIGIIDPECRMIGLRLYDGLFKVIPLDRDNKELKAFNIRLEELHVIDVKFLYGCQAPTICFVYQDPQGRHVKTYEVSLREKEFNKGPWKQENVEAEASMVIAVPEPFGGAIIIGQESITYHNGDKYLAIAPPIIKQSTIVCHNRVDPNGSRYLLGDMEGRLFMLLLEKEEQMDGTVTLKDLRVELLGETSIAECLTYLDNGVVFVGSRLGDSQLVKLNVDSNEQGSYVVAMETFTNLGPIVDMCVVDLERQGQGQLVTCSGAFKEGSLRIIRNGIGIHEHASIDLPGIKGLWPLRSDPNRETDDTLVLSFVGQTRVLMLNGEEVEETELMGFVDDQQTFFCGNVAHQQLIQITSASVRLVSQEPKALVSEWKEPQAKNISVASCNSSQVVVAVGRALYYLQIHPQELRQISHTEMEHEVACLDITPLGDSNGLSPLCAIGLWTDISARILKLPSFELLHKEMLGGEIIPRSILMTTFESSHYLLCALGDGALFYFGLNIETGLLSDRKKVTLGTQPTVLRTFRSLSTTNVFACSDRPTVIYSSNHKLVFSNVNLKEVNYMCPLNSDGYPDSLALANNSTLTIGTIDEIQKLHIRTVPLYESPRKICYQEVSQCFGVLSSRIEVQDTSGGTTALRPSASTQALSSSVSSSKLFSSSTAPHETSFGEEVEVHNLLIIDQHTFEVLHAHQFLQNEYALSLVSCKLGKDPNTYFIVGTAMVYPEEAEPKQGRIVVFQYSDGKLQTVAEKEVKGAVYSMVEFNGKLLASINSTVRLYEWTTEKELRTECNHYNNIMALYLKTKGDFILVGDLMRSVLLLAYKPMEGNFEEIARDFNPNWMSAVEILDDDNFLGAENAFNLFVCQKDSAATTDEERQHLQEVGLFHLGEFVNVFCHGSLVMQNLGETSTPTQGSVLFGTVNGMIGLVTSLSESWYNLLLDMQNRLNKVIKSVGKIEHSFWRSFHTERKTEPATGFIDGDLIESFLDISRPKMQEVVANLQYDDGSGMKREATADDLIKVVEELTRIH

[3] = biological target: T2, IKZF1 (Homo sapiens, UniProt Q13422+Q96SW2); assay: Western-blot assay, substrate protein degradation in hPBMCs: IKZF1; assay type: cell-based; conditions: for substrate protein remaining % IKZF1: 24 hours of compound treatment, 50 nM and 500 nM
T2 construct: effects of the compounds of the present disclosure on the expression of target proteins in cells; endogenous in cells; host or cells: human PBMCs (hPBMCs)
T2 sequence (Q13422 whole entry): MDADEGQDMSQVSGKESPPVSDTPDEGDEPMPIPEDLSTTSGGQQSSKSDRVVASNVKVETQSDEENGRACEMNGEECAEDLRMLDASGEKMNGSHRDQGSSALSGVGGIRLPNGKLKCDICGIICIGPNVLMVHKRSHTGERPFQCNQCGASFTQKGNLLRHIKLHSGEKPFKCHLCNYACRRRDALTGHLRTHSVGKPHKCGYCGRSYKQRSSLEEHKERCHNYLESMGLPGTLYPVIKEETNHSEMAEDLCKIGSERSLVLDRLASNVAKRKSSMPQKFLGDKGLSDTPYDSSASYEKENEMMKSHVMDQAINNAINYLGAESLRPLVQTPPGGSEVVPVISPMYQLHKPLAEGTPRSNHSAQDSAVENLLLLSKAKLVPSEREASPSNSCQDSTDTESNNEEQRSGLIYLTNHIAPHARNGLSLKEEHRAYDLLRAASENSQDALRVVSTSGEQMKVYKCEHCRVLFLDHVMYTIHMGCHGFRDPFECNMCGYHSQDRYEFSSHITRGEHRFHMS
T2 sequence (Q96SW2 whole entry): as the sequence (Q96SW2 whole entry) above
T2 sequence (Q16531 whole entry partner): as the sequence (Q16531 whole entry partner) above

[4] = biological target: T3, IKZF2 (Homo sapiens, UniProt Q96SW2+Q9UKS7); assay: Western-blot assay, substrate protein degradation in hPBMCs: IKZF2; assay type: cell-based; conditions: for substrate protein remaining % IKZF2: 24 hours of compound treatment, 50 nM and 500 nM
T3 construct: effects of the compounds of the present disclosure on the expression of target proteins in cells; endogenous in cells; host or cells: human PBMCs (hPBMCs)
T3 sequence (Q9UKS7 whole entry): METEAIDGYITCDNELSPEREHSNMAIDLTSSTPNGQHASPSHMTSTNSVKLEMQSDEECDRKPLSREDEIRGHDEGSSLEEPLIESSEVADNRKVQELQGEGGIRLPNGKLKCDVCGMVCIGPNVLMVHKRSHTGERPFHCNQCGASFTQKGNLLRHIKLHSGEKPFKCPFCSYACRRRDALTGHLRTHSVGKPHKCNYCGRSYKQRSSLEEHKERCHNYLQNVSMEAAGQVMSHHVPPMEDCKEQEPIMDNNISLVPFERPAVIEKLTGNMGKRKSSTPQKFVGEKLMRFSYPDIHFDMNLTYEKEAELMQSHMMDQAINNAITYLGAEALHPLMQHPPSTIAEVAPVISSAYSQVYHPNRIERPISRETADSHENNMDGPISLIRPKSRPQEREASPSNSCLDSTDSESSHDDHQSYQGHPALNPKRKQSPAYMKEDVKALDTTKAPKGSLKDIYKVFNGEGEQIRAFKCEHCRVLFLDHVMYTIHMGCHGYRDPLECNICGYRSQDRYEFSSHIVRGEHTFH
T3 sequence (Q96SW2 whole entry): as the sequence (Q96SW2 whole entry) above
T3 sequence (Q16531 whole entry partner): as the sequence (Q16531 whole entry partner) above

[5] = biological target: T4, IKZF3 (Homo sapiens, UniProt Q96SW2+Q9UKT9); assay: Western-blot assay, substrate protein degradation in hPBMCs: IKZF3; assay type: cell-based; conditions: for substrate protein remaining % IKZF3: 24 hours of compound treatment, 50 nM and 500 nM
T4 construct: effects of the compounds of the present disclosure on the expression of target proteins in cells; endogenous in cells; host or cells: human PBMCs (hPBMCs)
T4 sequence (Q9UKT9 whole entry): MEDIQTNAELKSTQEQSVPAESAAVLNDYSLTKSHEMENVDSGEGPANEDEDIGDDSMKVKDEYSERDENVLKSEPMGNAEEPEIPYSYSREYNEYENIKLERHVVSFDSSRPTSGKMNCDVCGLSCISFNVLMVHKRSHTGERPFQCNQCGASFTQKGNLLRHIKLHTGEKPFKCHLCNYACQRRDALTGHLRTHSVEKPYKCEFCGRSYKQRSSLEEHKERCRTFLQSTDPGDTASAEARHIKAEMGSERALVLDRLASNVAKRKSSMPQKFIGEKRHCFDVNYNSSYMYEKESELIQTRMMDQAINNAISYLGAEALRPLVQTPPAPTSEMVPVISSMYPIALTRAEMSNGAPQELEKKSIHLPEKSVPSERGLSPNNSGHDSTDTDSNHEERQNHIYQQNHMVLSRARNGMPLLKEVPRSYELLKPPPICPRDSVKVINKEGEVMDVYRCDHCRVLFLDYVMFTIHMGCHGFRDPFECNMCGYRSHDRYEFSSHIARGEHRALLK
T4 sequence (Q96SW2 whole entry): as the sequence (Q96SW2 whole entry) above
T4 sequence (Q16531 whole entry partner): as the sequence (Q16531 whole entry partner) above

[6] = biological target: T5, CK1α (Homo sapiens, UniProt P48729+Q96SW2); assay: Western-blot assay, substrate protein degradation in hPBMCs: CK1α; assay type: cell-based; conditions: for substrate protein remaining % CK1α: 24 hours of compound treatment, 50 nM and 500 nM
T5 construct: effects of the compounds of the present disclosure on the expression of target proteins in cells; endogenous in cells; host or cells: human PBMCs (hPBMCs)
T5 sequence (P48729 whole entry): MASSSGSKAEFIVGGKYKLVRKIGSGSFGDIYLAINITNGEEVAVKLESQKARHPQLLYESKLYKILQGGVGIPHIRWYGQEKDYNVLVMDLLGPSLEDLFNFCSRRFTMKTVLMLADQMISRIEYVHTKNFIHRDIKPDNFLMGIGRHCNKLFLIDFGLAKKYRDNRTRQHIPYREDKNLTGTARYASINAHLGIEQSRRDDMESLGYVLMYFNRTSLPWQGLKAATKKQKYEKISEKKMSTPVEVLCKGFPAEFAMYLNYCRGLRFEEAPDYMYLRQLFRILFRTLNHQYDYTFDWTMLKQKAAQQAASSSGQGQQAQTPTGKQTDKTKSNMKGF
T5 sequence (Q96SW2 whole entry): as the sequence (Q96SW2 whole entry) above
T5 sequence (Q16531 whole entry partner): as the sequence (Q16531 whole entry partner) above

[7] = biological target: T6, GSPT1 (Homo sapiens, UniProt P15170+Q96SW2); assay: Western-blot assay, substrate protein degradation in hPBMCs: GSPT1; assay type: cell-based; conditions: for substrate protein remaining % GSPT1: 24 hours of compound treatment, 50 nM and 500 nM
T6 construct: effects of the compounds of the present disclosure on the expression of target proteins in cells; endogenous in cells; host or cells: human PBMCs (hPBMCs)

[8] = system: H292; assay: Cell viability assay (CellTiter-Meiluncell Luminescent), tumor cell proliferation, H292; conditions: Homo sapiens, NCI-H292, 96 h; for inhibition at 0.01 µM: read-out: Inhibition Rate at 10 nM (%); for inhibition at 0.5 µM: read-out: Inhibition Rate at 500 nM (%)
[9] = compounds at 50 nM and 500 nM, 24 hours

IC50 [1] [nM] | Structure (SMILES) | inhibition at 0.01 µM [1] [%] | inhibition at 0.5 µM [1] [%] | substrate protein remaining % WEE1 [2] | substrate protein remaining % IKZF1 [3] | substrate protein remaining % IKZF2 [4] | substrate protein remaining % IKZF3 [5] | substrate protein remaining % CK1α [6] | substrate protein remaining % GSPT1 [7] | WEE1 substrate protein remaining % [2, 9] | IKZF1 substrate protein remaining % [3, 9] | IKZF2 substrate protein remaining % [4, 9] | IKZF3 substrate protein remaining % [5, 9] | CK1α substrate protein remaining % [6, 9] | GSPT1 substrate protein remaining % [7, 9] | inhibition at 0.01 µM [8] [%] | inhibition at 0.5 µM [8] [%]
 | Cc1nc(N2CCN(Cc3ccc4c(c3)C(=O)N(N3CCC(=O)NC3=O)C4=O)CC2)c2c3c(sc2n1)CCCC3 [GT-08101, 2-(2,4-dioxotetrahydropyrimidin-1(2H)-yl)-5-((4-(2-methyl-5,6,7,8-tetrahydrobenzo[4,5]thieno[2,3-d]pyrimidin-4-yl)piperazin-1-yl)methyl)isoindoline-1,3-dione] | 18 to 25 | 25 to 30 |  |  |  |  |  |  |  |  |  |  |  |  |  | 
 | O=C1CCN(N2C(=O)c3ccc(CN4CCC(c5ncnc6sccc56)CC4)cc3C2=O)C(=O)N1 [GT-08106, 2-(2,4-dioxotetrahydropyrimidin-1(2H)-yl)-5-((4-(thieno[2,3-d]pyrimidin-4-yl)piperidin-1-yl)methyl)isoindoline-1,3-dione] | 10 to 18 | 18 to 25 | A (0% ≤ substrate protein remaining % ≤ 80%) | B (80%< substrate protein remaining %≤ 100%) | B (80%< substrate protein remaining %≤ 100%) | B (80%< substrate protein remaining %≤ 100%) | B (80%< substrate protein remaining %≤ 100%) | A (0% ≤ substrate protein remaining % ≤ 80%) |  |  |  |  |  |  |  | 
 | Cc1sc2ncnc(N3CCCN(Cc4ccc5c(c4)C(=O)N(N4CCC(=O)NC4=O)C5=O)CC3)c2c1C [GT-08095, 5-((4-(5,6-dimethylthieno[2,3-d]pyrimidin-4-yl)-1,4-diazepan-1-yl)methyl)-2-(2,4-dioxotetrahydropyrimidin-1(2H)-yl)isoindoline-1,3-dione] | 25 to 30 | 18 to 25 | A (0% ≤ substrate protein remaining % ≤ 80%) | B (80%< substrate protein remaining %≤ 100%) | B (80%< substrate protein remaining %≤ 100%) | B (80%< substrate protein remaining %≤ 100%) | A (0% ≤ substrate protein remaining % ≤ 80%) | B (80%< substrate protein remaining %≤ 100%) |  |  |  |  |  |  |  | 
100 to 300 | O=C1CCN(N2Cc3cc(CN4CCN(c5cccc(Br)c5)CC4)ccc3C2=O)C(=O)N1 [GT-06698, 1-(5-((4-(3-bromophenyl)piperazin-1-yl)methyl)-1-oxoisoindolin-2-yl)dihydropyrimidine-2,4(1H,3H)-dione] |  |  |  |  |  |  |  |  | B ("B" is defined as 80%< substrate protein remaining %≤ 100%) | B ("B" is defined as 80%< substrate protein remaining %≤ 100%) | B ("B" is defined as 80%< substrate protein remaining %≤ 100%) | B ("B" is defined as 80%< substrate protein remaining %≤ 100%) | B ("B" is defined as 80%< substrate protein remaining %≤ 100%) | A ("A" is defined as 0% ≤ substrate protein remaining % ≤ 80%) |  | 
 | CC1(C)CCC(CN2C3CCC2CN(Cc2ccc4c(c2)C(=O)N(N2CCC(=O)NC2=O)C4=O)C3)=C(c2ccc(Cl)cc2)C1 [GT-07887, 5-((8-((4'-chloro-5,5-dimethyl-3,4,5,6-tetrahydro-[1,1'-biphenyl]-2-yl)methyl)-3,8-diazabicyclo[3.2.1]octan-3-yl)methyl)-2-(2,4-dioxotetrahydropyrimidin-1(2H)-yl)isoindoline-1,3-dione] | 25 to 30 | 30 to 40 |  |  |  |  |  |  |  |  |  |  |  |  |  | 
 | O=C1CCN(N2C(=O)c3ccc(CN4CCN(c5nc(Cl)nc6c5SCC6)CC4)cc3C2=O)C(=O)N1 [GT-08448, 5-((4-(2-chloro-6,7-dihydrothieno[3,2-d]pyrimidin-4-yl)piperazin-1-yl)methyl)-2-(2,4-dioxotetrahydropyrimidin-1(2H)-yl)isoindoline-1,3-dione] |  |  | B (80%< substrate protein remaining %≤ 100%) | B (80%< substrate protein remaining %≤ 100%) | B (80%< substrate protein remaining %≤ 100%) | B (80%< substrate protein remaining %≤ 100%) | B (80%< substrate protein remaining %≤ 100%) | A (0% ≤ substrate protein remaining % ≤ 80%) |  |  |  |  |  |  | 20 to 40 | 20 to 40
 | O=C1CCN(N2C(=O)c3ccc(CN4CCN(c5ncnc6ccsc56)CC4)cc3C2=O)C(=O)N1 [GT-08452, 2-(2,4-dioxotetrahydropyrimidin-1(2H)-yl)-5-((4-(thieno[3,2-d]pyrimidin-4-yl)piperazin-1-yl)methyl)isoindoline-1,3-dione] |  |  | A (0% ≤ substrate protein remaining % ≤ 80%) | A (0% ≤ substrate protein remaining % ≤ 80%) | B (80%< substrate protein remaining %≤ 100%) | A (0% ≤ substrate protein remaining % ≤ 80%) | A (0% ≤ substrate protein remaining % ≤ 80%) | B (80%< substrate protein remaining %≤ 100%) |  |  |  |  |  |  | 20 to 40 | 5 to 10
 | O=C1CCN(N2C(=O)c3ccc(CN4CCC(c5ncnc6sc7c(c56)CCCC7)CC4)cc3C2=O)C(=O)N1 [GT-08424, 2-(2,4-dioxotetrahydropyrimidin-1(2H)-yl)-5-((4-(5,6,7,8-tetrahydrobenzo[4,5]thieno[2,3-d]pyrimidin-4-yl)piperidin-1-yl)methyl)isoindoline-1,3-dione] |  |  | B (80%< substrate protein remaining %≤ 100%) | B (80%< substrate protein remaining %≤ 100%) | B (80%< substrate protein remaining %≤ 100%) | B (80%< substrate protein remaining %≤ 100%) | A (0% ≤ substrate protein remaining % ≤ 80%) | A (0% ≤ substrate protein remaining % ≤ 80%) |  |  |  |  |  |  | 20 to 40 | 10 to 15
 | O=C1CCN(N2C(=O)c3ccc(CN4CC=C(c5ncnc6sc(-c7ccccc7)cc56)CC4)cc3C2=O)C(=O)N1 [GT-08430, 2-(2,4-dioxotetrahydropyrimidin-1(2H)-yl)-5-((4-(6-phenylthieno[2,3-d]pyrimidin-4-yl)-3,6-dihydropyridin-1(2H)-yl)methyl)isoindoline-1,3-dione] |  |  | A (0% ≤ substrate protein remaining % ≤ 80%) | B (80%< substrate protein remaining %≤ 100%) | B (80%< substrate protein remaining %≤ 100%) | B (80%< substrate protein remaining %≤ 100%) | B (80%< substrate protein remaining %≤ 100%) | B (80%< substrate protein remaining %≤ 100%) |  |  |  |  |  |  | 15 to 20 | 10 to 15
 | O=C1CCN(N2C(=O)c3ccc(CN4CCN(c5nc(Cl)nc6ccsc56)CC4)cc3C2=O)C(=O)N1 [GT-08453, 5-((4-(2-chlorothieno[3,2-d]pyrimidin-4-yl)piperazin-1-yl)methyl)-2-(2,4-dioxotetrahydropyrimidin-1(2H)-yl)isoindoline-1,3-dione] |  |  | B (80%< substrate protein remaining %≤ 100%) | A (0% ≤ substrate protein remaining % ≤ 80%) | B (80%< substrate protein remaining %≤ 100%) | A (0% ≤ substrate protein remaining % ≤ 80%) | A (0% ≤ substrate protein remaining % ≤ 80%) | A (0% ≤ substrate protein remaining % ≤ 80%) |  |  |  |  |  |  | 20 to 40 | 10 to 15
 | O=C1CCN(N2C(=O)c3ccc(CN4CCC(c5ncc6ccsc6n5)CC4)cc3C2=O)C(=O)N1 [GT-08427, 2-(2,4-dioxotetrahydropyrimidin-1(2H)-yl)-5-((4-(thieno[2,3-d]pyrimidin-2-yl)piperidin-1-yl)methyl)isoindoline-1,3-dione] |  |  | A (0% ≤ substrate protein remaining % ≤ 80%) | B (80%< substrate protein remaining %≤ 100%) | A (0% ≤ substrate protein remaining % ≤ 80%) | B (80%< substrate protein remaining %≤ 100%) | B (80%< substrate protein remaining %≤ 100%) | B (80%< substrate protein remaining %≤ 100%) |  |  |  |  |  |  | 15 to 20 | 20 to 40
50 to 100 | O=C1CCN(N2Cc3cc(CN4CCN(c5ccc(C(F)(F)F)cc5)CC4)ccc3C2=O)C(=O)N1 [GT-06700, 1-(1-oxo-5-((4-(4-(trifluoromethyl)phenyl)piperazin-1-yl)methyl)isoindolin-2-yl)dihydropyrimidine-2,4(1H,3H)-dione] |  |  |  |  |  |  |  |  |  |  |  |  |  |  |  | 
